Take `O=Cc1cc(-c2nc(C(=O)O)c(-c3ccc(F)c(Cl)c3)n2-c2cccc(Cl)c2F)cs1` [Example 293, 5-(3-Chloro-4-fluoro-phenyl)-1-(3-chloro-2-fluoro-phenyl)-2-(5-formyl-thiophen-3-yl)-1H-imidazole-4-carboxylic acid]: the melting point – broadly, the temperature of the solid-liquid transition – is 157 to 160 °C.

The compound `Cc1ccc(-c2nc(C#N)c(-c3cccc(Cl)c3)n2-c2cc(Cl)ccc2C)cc1C` [Example 3, 1-(5-chloro-2-methyl-phenyl)-5-(3-chloro-phenyl)-2-(3,4-dimethyl-phenyl)-1H-imidazole-4-nitrile] came in with a melting point of 218 °C.

Regarding `CCNC(=O)c1nc(-c2ccc(C)c(C)c2)n(-c2cc(Cl)ccc2C)c1-c1cccc(Cl)c1` [Example 1, 1-(5-Chloro-2-methyl-phenyl)-5-(3-chloro-phenyl)-2-(3,4-dimethyl-phenyl)-1H-imidazole-4-carboxylic acid ethylamide], the melting point is 141 to 143 °C.

For the origin of these results see patent US20120149661A1, “TETRA-SUBSTITUTED HETEROARYL COMPOUNDS AND THEIR USE AS MDM2 AND/OR MDM4 MODULATORS” (NOVARTIS AG, priority 2009, published 2012).
